Reference: ChEMBL document CHEMBL1134267 (Bioorg Med Chem Lett, 2001)

Key:
[1] = target: Neuronal acetylcholine receptor subunit alpha-7 (Rattus norvegicus, UniProt Q05941); experiment: Affinity for alpha-7 neuronal nicotinic acetylcholine receptor subtype determined by inhibition of [3H]-MLA binding to rat brain membranes; type: cell membranes, Membrane
[2] = target: Neuronal acetylcholine receptor alpha4/beta2 (Rattus norvegicus); experiment: Affinity for Nicotinic acetylcholine receptor alpha4-beta2 tested by analogue-induced inhibition of [3H]NIC binding to rat striatal membranes

Chain of Neuronal acetylcholine receptor subunit alpha-7 (Q05941 whole entry): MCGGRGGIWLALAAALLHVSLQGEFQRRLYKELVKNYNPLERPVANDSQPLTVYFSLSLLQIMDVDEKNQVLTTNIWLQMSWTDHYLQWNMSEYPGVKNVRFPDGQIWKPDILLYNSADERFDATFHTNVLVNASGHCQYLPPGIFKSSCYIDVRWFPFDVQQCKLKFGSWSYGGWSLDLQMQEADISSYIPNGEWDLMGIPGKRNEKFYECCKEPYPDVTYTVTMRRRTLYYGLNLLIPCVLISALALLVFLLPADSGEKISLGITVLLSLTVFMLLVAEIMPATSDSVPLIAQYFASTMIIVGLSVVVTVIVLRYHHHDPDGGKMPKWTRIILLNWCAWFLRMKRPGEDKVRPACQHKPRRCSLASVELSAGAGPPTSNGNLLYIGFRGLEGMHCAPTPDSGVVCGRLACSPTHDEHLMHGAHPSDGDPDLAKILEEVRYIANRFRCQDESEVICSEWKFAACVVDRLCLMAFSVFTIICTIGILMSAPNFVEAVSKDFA

SMILES | Ki [1] | Ki [2]
c1cc2c(cn1)[C@@H]1NCC[C@@H]1CC2 | 20200 nM | 
CN1CCC[C@H]1c1ccc[n+]([BH2-]C#N)c1 | 41 nM | 15.2 µM
CN1CC[C@@H]2CCc3cc[n+]([BH2-]C#N)cc3[C@@H]21 | 600 nM | 2.4 µM
CN1CC[C@H]2CCc3ncccc3[C@H]21 | > 100000 nM | 12.2 µM
c1cncc([C@@H]2CCCN2)c1 [NORNICOTINE] | 1340 nM | 
c1cnc2c(c1)[C@H]1NCC[C@H]1CC2 | > 100000 nM | 10.5 µM
CN1CC[C@H]2CCc3c(ccc[n+]3[BH2-]C#N)[C@H]21 | > 100000 nM | 
CN1CC[C@@H]2CCc3ccncc3[C@@H]21 | 590 nM | 0.4 µM
